Experimental data taken from ChEMBL document CHEMBL3085750, “Discovery of 2-methylpyridine-based biaryl amides as γ-secretase modulators for the treatment of Alzheimer's disease” (Bioorg Med Chem Lett, 2013).

Legend:
[1] = biological target: Cytochrome P450 2D6 (Homo sapiens, UniProt P10635); assay: Inhibition of CYP2D6 (unknown origin) after 10 mins; format: ADME
[2] = biological target: Cytochrome P450 3A4 (Homo sapiens, UniProt P08684); assay: Inhibition of CYP3A4 (unknown origin) after 5 mins; format: ADME
Sequence of Cytochrome P450 3A4 (P08684 whole entry): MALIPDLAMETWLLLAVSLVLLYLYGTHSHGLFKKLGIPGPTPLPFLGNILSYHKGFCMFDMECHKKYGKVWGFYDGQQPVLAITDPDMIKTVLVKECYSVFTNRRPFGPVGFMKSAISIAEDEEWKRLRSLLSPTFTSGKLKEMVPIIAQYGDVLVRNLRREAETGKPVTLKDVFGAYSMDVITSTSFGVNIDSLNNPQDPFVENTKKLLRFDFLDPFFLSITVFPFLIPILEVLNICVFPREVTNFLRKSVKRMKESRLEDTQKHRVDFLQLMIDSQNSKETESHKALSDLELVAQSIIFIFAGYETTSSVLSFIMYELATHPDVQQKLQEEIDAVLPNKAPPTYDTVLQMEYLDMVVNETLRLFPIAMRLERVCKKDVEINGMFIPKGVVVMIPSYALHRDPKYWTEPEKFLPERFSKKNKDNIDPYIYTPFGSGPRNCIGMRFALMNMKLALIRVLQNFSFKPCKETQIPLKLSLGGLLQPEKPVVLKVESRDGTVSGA

[3] = Metabolic stability in human liver microsomes at 1 uM after 30 mins; format: ADME; settings: read-out: Stability
[4] = Metabolic stability in rat liver microsomes at 1 uM after 30 mins; format: ADME; settings: read-out: Stability
[5] = biological target: Gamma-secretase; assay: Modulation of gamma-secretase in HEK293 cells expressing guinea pig Swedish mutant SFV-APP695sw assessed as inhibition of amyloid beta-42 production after 16 to 18 hrs by HTRF assay; format: cell-based, Homo sapiens
[6] = Ratio of drug level in brain to plasma in mouse at 10 mg/kg, po after 2 hrs; format: ADME, organism-based; design: dose 10 mg/kg, route oral; settings: read-out: BPR

Sequence of Cytochrome P450 2D6 (P10635 whole entry): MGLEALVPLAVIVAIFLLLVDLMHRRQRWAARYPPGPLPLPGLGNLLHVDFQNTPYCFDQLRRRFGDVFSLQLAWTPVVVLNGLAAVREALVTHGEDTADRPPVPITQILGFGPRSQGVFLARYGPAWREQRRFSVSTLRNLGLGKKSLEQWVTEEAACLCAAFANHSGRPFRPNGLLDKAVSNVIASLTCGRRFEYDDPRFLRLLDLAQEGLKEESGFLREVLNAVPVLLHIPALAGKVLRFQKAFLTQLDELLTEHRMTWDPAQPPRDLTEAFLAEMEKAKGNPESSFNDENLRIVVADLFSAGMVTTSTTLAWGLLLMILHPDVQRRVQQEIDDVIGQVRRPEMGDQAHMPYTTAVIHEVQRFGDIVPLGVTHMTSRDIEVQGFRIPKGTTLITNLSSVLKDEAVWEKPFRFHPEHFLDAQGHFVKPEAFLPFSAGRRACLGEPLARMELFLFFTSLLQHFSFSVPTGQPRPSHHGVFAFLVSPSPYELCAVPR

Row | Compound | IC50 [1] | IC50 [2] | microsomal CLint at 1 µM [3] | microsomal CLint at 1 µM [4] | IC50 [5] | Kp at 2 h [6]
1 | Cc1cc(-c2ccc(NC(=O)Cc3cc(C(F)(F)F)cc(C(F)(F)F)c3)cc2)ccn1 | 13000 nM | > 27000 nM | 18 µL/min/mg | 22 µL/min/mg | 460 nM | 
2 | CC(=O)c1ccc(-c2cccc(C(C)C(=O)Nc3ccc(-c4ccnc(C)c4)cc3)c2)cc1 (stereo not drawn) |  |  |  |  | 140 nM | 
3 | O=S(=O)(Nc1ccc(-c2ncccn2)cc1)c1cc(Cl)cc(Cl)c1 | > 27000 nM | 16200 nM | > 399 µL/min/mg | > 399 µL/min/mg | > 10000 nM | 
4 | COc1cc(NC(=O)Cc2cc(C(F)(F)F)cc(C(F)(F)F)c2)ccc1-n1cnc(C)c1 |  |  |  |  | 1450 nM | 
5 | CCCc1cc(-c2ccc(NS(=O)(=O)c3cc(C(F)(F)F)cc(C(F)(F)F)c3)cc2)ccn1 | 1800 nM | > 27000 nM | 270 µL/min/mg | 122 µL/min/mg | 4060 nM | 
6 | O=S(=O)(Nc1ccc(-c2cncnc2)cc1)c1cc(Cl)cc(Cl)c1 | 7200 nM | 3500 nM | 45 µL/min/mg | > 399 µL/min/mg | > 10000 nM | 
7 | Cc1cccc(C(C)C(=O)Nc2ccc(-c3ccnc(C)c3)cc2)c1 (stereo not drawn) |  |  |  |  | 540 nM | 
8 | Cc1cc(-c2ccc(NC(=O)Cc3cc(C(F)(F)F)cc(C(F)(F)F)c3)nc2)ccn1 |  |  |  |  | > 10000 nM | 
9 | COc1cc(C(=O)NCCc2ccc(Cl)cc2)ccc1-n1cnc(C)c1 |  |  |  |  | 420 nM | 
10 | Cc1cc(-c2ccc(NC(=O)C(C)c3cccc(-c4ccc(C(=O)O)cc4)c3)cc2)ccn1 (stereo not drawn) |  |  |  |  | > 10000 nM | 
11 | Cc1nccn1-c1ccc(NS(=O)(=O)c2cc(Cl)cc(Cl)c2)cc1 | > 27000 nM | > 27000 nM | 22 µL/min/mg | 113 µL/min/mg | 9400 nM | 
12 | O=S(=O)(Nc1ccc(-n2ccnc2)cc1)c1cc(Cl)cc(Cl)c1 | 100 nM | 100 nM | < 14 µL/min/mg | < 14 µL/min/mg | 2100 nM | 0.07
13 | Cc1cc(-c2ccc(NC(=O)C(C)c3cccc(-c4ccc(N5CCOCC5)cc4)c3)cc2)ccn1 (stereo not drawn) |  |  |  |  | 70 nM | 
14 | Cc1noc(-c2ccc(NS(=O)(=O)c3cc(Cl)cc(Cl)c3)cc2)n1 | > 27000 nM | > 27000 nM | > 399 µL/min/mg | > 399 µL/min/mg | > 10000 nM | 
15 | Cc1cc(-c2ccc(NC(=O)C(C)c3cccc(-c4cccc(C#N)c4)c3)cc2)ccn1 (stereo not drawn) |  |  |  |  | 220 nM | 
16 | CCc1cc(-c2ccc(NS(=O)(=O)c3cc(C(F)(F)F)cc(C(F)(F)F)c3)cc2)ccn1 | 700 nM | 12200 nM | 371 µL/min/mg | 324 µL/min/mg | 210 nM | 
17 | Cc1cc(-c2ccc(NC(=O)C(CC(C)C)c3cc(C(F)(F)F)cc(C(F)(F)F)c3)cc2)ccn1 (stereo not drawn) |  |  |  |  | 820 nM | 
18 | Cc1cc(-c2ccc(NC(=O)C(C)c3cccc(-c4ccc(NC(C)C)nc4)c3)cc2)ccn1 (stereo not drawn) |  |  |  |  | 180 nM | 

Row | Compound | IC50 [1] | IC50 [2] | microsomal CLint at 1 µM [3] | microsomal CLint at 1 µM [4] | IC50 [5] | Kp at 2 h [6]
19 | Cc1cccc(C(CC(C)C)C(=O)Nc2ccc(-c3ccnc(C)c3)cc2)c1 (single isomer, unassigned; isomer 1) |  |  |  |  | 180 nM | 
20 | Cc1cc(-c2ccc(NC(=O)[C@H](C)c3cccc(-c4ccc(N5CCOCC5)cc4)c3)cc2)ccn1 |  |  |  |  | 31 nM | 
21 | C=Cc1cc(-c2ccc(NS(=O)(=O)c3cc(C(F)(F)F)cc(C(F)(F)F)c3)cc2)ccn1 | 700 nM | 4500 nM | 193 µL/min/mg | 169 µL/min/mg | 1260 nM | 
22 | Cc1cccc(C(CC(C)C)C(=O)Nc2ccc(-c3ccnc(C)c3)cc2)c1 (stereo in doubt; 50) |  |  |  |  | 170 nM | 
23 | Cc1cc(-c2ccc(NC(=O)C(C)c3cccc(N4CCN(c5ccccc5)CC4)c3)cc2)ccn1 (stereo not drawn) |  |  |  |  | 160 nM | 
24 | Cc1cc(C)cc(C(C)C(=O)Nc2ccc(-c3ccnc(C)c3)cc2)c1 (stereo not drawn) |  |  |  |  | 570 nM | 
25 | Cc1cc(-c2ccc(NC(=O)C(C)c3cccc(-c4ccc(N(C)C)cc4)c3)cc2)ccn1 (stereo not drawn) |  |  |  |  | 120 nM | 
26 | Cc1cc(-c2cccc(NC(=O)Cc3cc(C(F)(F)F)cc(C(F)(F)F)c3)c2)ccn1 |  |  |  |  | > 10000 nM | 
27 | COc1cc(NS(=O)(=O)c2cc(Cl)cc(Cl)c2)ccc1-n1cnc(C)c1 |  |  |  |  | 1060 nM | 
28 | COc1cc(NS(=O)(=O)c2ccc(Cl)c(Cl)c2)ccc1-n1cnc(C)c1 |  |  |  |  | 900 nM | 
29 | Cc1cc(-c2ccc(NC(=O)C(C)c3cccc(-c4ccc(C(=O)N(C)C)cc4)c3)cc2)ccn1 (stereo not drawn) |  |  |  |  | 260 nM | 
30 | Cc1cc(-c2ccc(NC(=O)Cc3cc(C(F)(F)F)cc(C(F)(F)F)c3)cn2)ccn1 |  |  |  |  | 1350 nM | 
31 | Cc1cc(-c2ccc(NC(=O)C(C)c3cccc(-c4ccc(C#N)cc4)c3)cc2)ccn1 (stereo not drawn) |  |  |  |  | 250 nM | 
32 | Cc1cccc(C(CCCO)C(=O)Nc2ccc(-c3ccnc(C)c3)cc2)c1 (stereo not drawn) |  |  |  |  | > 10000 nM | 
33 | Cc1cc(-c2ccc(N(C)C(=O)Cc3cc(C(F)(F)F)cc(C(F)(F)F)c3)cc2)ccn1 |  |  |  |  | > 10000 nM | 
34 | Cc1cc(-c2ccc(NS(=O)(=O)c3cc(Cl)cc(Cl)c3)cc2)ccn1 | 9800 nM | 4700 nM | 497 µL/min/mg | > 399 µL/min/mg | 720 nM | 0.1
35 | Cc1cc(-c2ccc(NC(=O)C(C)c3cccc(-c4ccc(N(C)C)nc4)c3)cc2)ccn1 (stereo not drawn) |  |  |  |  | 170 nM | 
36 | Cc1cc(-c2ccc(NC(=O)C(C)c3cc(C(F)(F)F)cc(C(F)(F)F)n3)cc2)ccn1 (stereo not drawn) |  |  |  |  | > 10000 nM | 
